Data: article PMC12698583, “Efficacy of sulfonamides targeting malic enzyme in an animal model of Chagas disease” (Frontiers in Pharmacology, 2025)

Experiments:
[1] = Metabolic stability in mouse liver microsomes; format: in vitro ADME; conditions: for half-life at 1 μM: CD-1, pH 7.4, mouse liver microsomes, 0.25 mg/mL, read-out: T1/2 - mouse; for parent compound remaining: mouse microsomes
Procedure: (§1) The in vitro metabolic stability of the compound was evaluated in pooled human liver microsomes (HLM, 20 mg/mL), Sprague-Dawley rat liver microsomes (RLM, 20 mg/mL), and CD-1 mouse liver microsomes (MLM, 20 mg/mL), all purchased from GIBCO (Thermo Fisher Scientific). NADPH regenerating system (GentestTM) was prepared in potassium phosphate buffer (100 mM, pH 7.4). […] The reaction was stopped by adding acetonitrile, followed by vortex homogenization, sonication for 5 min, and centrifugation at 10,000 g for 5 min at 4 °C. The supernatants were transferred to glass vials for LC-MS/MS analysis. The half-life was estimated based on the area under the curve (AUC) through regression analysis of the concentration decay over time. This calculation was performed using the following formula: t1/2=LN2/Kel
(§2) Where LN is the neperian logarithm, and K is the slope of the regression of the LN of AUC as a function of time. Then, the microsomal intrinsic clearance (CLint, mic) was calculated using the following equation: CLint.mic=LN2/t1/2 x VI/PM
(§3) Where V is the incubation volume (µL), and PM is the microsomal protein concentration (mg). This intrinsic clearance can be extrapolated to the whole liver (CLint,hep) using the following equation: CLint.hep=CLint.mic x ML x LB
(§4) ML is the microsomal yield, and LB is the liver weight (g) per kilogram of body weight.
(§5) To ensure the linearity of the elimination phase and to avoid the influence of points outside the log-linear range, the points deviated from the expected first-order kinetic profile were excluded. The supernatants were analyzed by UPLC-Xevo-TQ-XS from Waters. Chromatographic separation was performed on an Acquity UPLC BEH C18 column (2.1 × 100 mm, 1.7 µm particle size), maintained at 40 °C. The mobile phases were (A) water with 0.1% formic acid and (B) acetonitrile with 0.1% formic acid. […] The total run time was 5 min.

[2] = Metabolic stability in human liver microsomes; format: in vitro ADME; conditions: for parent compound remaining: human microsomes; for half-life at 1 μM / microsomal CLint at 1 μM: pooled liver microsomes, pH 7.4, human liver microsomes; for half-life at 1 μM: 0.25 mg/mL, read-out: T1/2 human; for microsomal CLint at 1 μM: read-out: CL int. mic.
Procedure: as §1, §2, §3, §4, §5

[3] = Metabolic stability in rat liver microsomes; format: in vitro ADME; conditions: for half-life at 1 μM / microsomal CLint at 1 μM: Sprague-Dawley, pH 7.4, rat liver microsomes; for half-life at 1 μM: 0.25 mg/mL, read-out: T1/2 rat; for microsomal CLint at 1 μM: read-out: CL int. mic.; for parent compound remaining: rat microsomes
Procedure: as §1, §2, §3, §4, §5

[4] = Host cell cytotoxicity in the image-based assay (total host cells); conditions: rat, H9c2 rat cardiomyoblasts (infected with T. cruzi), 72 h treatment
Procedure: (§6) Tested compounds were dissolved and serially diluted in dimethylsulfoxide (DMSO) using a half-log dilution across six concentrations. Intermediate plates were prepared by diluting compounds 1:25 in DMEM (Dulbecco’s Modified Eagle Medium) with 10% FBS (Fetal Bovine Serum). The assay was based on [Fredo Naciuk et al. (2020)], with minor modifications. Briefly, T. cruzi trypomastigotes (from LLC-MK2 cultures, 6 days post-infection) were used to infect H9c2 rat cardiomyoblasts overnight (16–18 h) at MOI 1. After washing with PBS, cells were trypsinized and resuspended in DMEM at 2.3 × 10^4 cells/mL. Then, 65 μL per well was plated in 384-well plates and incubated for 24 h (37 °C, 5% CO2, >95% humidity). Subsequently, 7.5 μL of compound solution was added (final [DMSO] 0.4%). After 72 h of treatment, cells were fixed with 4% PFA and stained with Hoechst 33342 (4 μg/mL). Six images per well were acquired using the Operetta system (PerkinElmer) and analyzed with Columbus software to quantify infected cells (≥3 cytoplasmic parasite spots).

[5] = Lipophilicity assay (LogD at pH 7.4), shake flask; format: physicochemical; conditions: pH 7.4, n-octanol/phosphate buffer
Procedure: For this assay, an aqueous phosphate buffer solution at pH 7.4, saturated with n-octanol, was prepared, along with an n-octanol solution saturated with the aqueous phase at pH 7.4. Both solutions were mechanically stirred (using a magnetic stir bar and a Corning magnetic stirrer) at room temperature for 24 h, followed by a 24-hour resting period to ensure complete phase separation. Different phase ratios were prepared from these solutions in the following aqueous phase/n-octanol ratios: 1:1, 1:10, 1:100, and 1:300, to ensure that the substances were evaluated under non-saturating conditions. Stock solutions of each compound were prepared in DMSO at a concentration of 20 mM. From these stock solutions, standard solutions at a concentration of 30 µM in phosphate buffer pH 7.4 were obtained and used in each partition system, performed in triplicate. To reach equilibrium, the vials containing the samples were shaken for 90 min at room temperature using a roller shaker (Basic First Lab Orbital).

[6] = tested on: T. cruzi Dm28c strain intracellular form infecting H9c2 rat cardiomyoblasts; test: T. cruzi intracellular image-based assay; format: cell-based, Trypanosoma cruzi; conditions: for SI: Selectivity index; for EC50: host cells infected by T. cruzi amastigotes, 72 h treatment
Procedure: as §6

Caco-2 cells = test: Caco-2 permeability assay; format: in vitro ADME
Procedure: (§7) Caco-2 cells (2.5 × 10^5) were cultured on 12 mm diameter filters with DMEM-PEST medium in an incubator at 37 °C and 10% CO2. Monolayer formation was monitored through transepithelial electrical resistance (TEER). […] The assay was conducted under orbital shaking at 37 °C. […] Compound quantification was performed using the HPLC-UV method, following the previously adjusted chromatographic conditions and parameters. At the end of the experiment, monolayer integrity was confirmed by measuring TEER.

[7] = Caco-2 permeability assay; format: in vitro ADME; conditions: human, Caco-2; apical to basolateral, 0.1 mM, 120 min
Procedure: as §7

in vitro = in vitro ADME; conditions: for Papp at 5 h, 100 μM: PAMPA
Procedure: The parallel artificial membrane permeability assay (PAMPA) was performed using a 96-well pre-coated plate system (Corning® BioCoat™ PAMPA Plate System). […] A total of 200 µL of each solution was added to donor wells, while 300 µL of PBS was placed in the corresponding acceptor wells. The plates were assembled and incubated at 37 °C for 5 h. Aliquots of the initial donor solution (T0) were collected before incubation and stored at −20 °C. At the end of the incubation, samples from donor and acceptor compartments were transferred to tubes containing 30% (v/v) acetonitrile and processed under identical conditions. Compound concentrations in donor, acceptor, and T0 samples were quantified by high-performance liquid chromatography with ultraviolet detection (HPLC-UV) using validated chromatographic conditions. The apparent permeability coefficient (Papp) was calculated using the standard PAMPA equation, shown below. All experiments were performed in a trplicate.
The Papp equation is: Papp=−VD+VA/At VD+VAln 1−CA t/Ceq

[8] = pH 5.5, PAMPA pH 5,5 Papp - lower
[9] = pH 5.5, PAMPA pH 5,5 Papp - upper
[10] = pH 7.4, PAMPA pH 7,4 Papp - lower
[11] = pH 7.4, PAMPA pH 7,4 Papp - upper

Row | Compound | half-life at 1 μM [1] | parent compound remaining ([1]; 15 min) | half-life at 1 μM [2] | microsomal CLint at 1 μM [2] | half-life at 1 μM [3] | microsomal CLint at 1 μM [3] | CC50 at 72 h [4] | logD at 90 min [5] | SI [6] | Caco-2 permeability classification (in words) (Caco-2 cells) | Papp at 120 min, 0.1 mM [7] | Papp at 5 h, 100 μM (in vitro; [8]) | Papp at 5 h, 100 μM (in vitro; [9]) | Papp at 5 h, 100 μM (in vitro; [10]) | Papp at 5 h, 100 μM (in vitro; [11]) | other results
1 | COc1ccc(NS(=O)(=O)c2cccc(NC(=O)c3cnccn3)c2)cc1 [AC-R008, N-(3-(N-(4-methoxyphenyl)sulfamoyl)phenyl)pyrazine-2-carboxamide] | 3 min | less than 1% | 7 min | 78 µL/min/mg | 10 min | 55 µL/min/mg | 99 µM | 2.5 | 108 | near the lower limit for moderate permeability | 9.71 ×10⁻⁶ cm/s | 40.5 ×10⁻⁶ cm/s | 56 ×10⁻⁶ cm/s | 92 ×10⁻⁶ cm/s | 86 ×10⁻⁶ cm/s | parent compound remaining ([1]; 5 min): 5%; parent compound remaining ([2]; 5 min): 47%; parent compound remaining ([2]; 60 min): about 1%; parent compound remaining ([3]; 5 min): 55%; parent compound remaining ([3]; 60 min): about 1%; EC50 ([6]; Trypanosoma cruzi, H9c2, 72 h): 0.92 µM; EC50 [6]: < 1 µM; Papp at 5 h, 100 μM (in vitro; pH 7.4, PAMPA Papp at pH 7.4): 92 ×10⁻⁶ cm/s
2 | CC(C)Oc1ccc(NS(=O)(=O)c2cccc(NC(=O)c3cnccn3)c2)cc1 [AC-M110, N-(3-(N-(4-isopropoxyphenyl)sulfamoyl)phenyl)pyrazine-2-carboxamide] | 2 min | less than 1% | 6 min | 97 µL/min/mg | 9 min | 61 µL/min/mg | 63 µM | 3 | 9092 | approaching high permeability classification | 20.7 ×10⁻⁶ cm/s | 3.4 ×10⁻⁶ cm/s | 4.4 ×10⁻⁶ cm/s | 9.1 ×10⁻⁶ cm/s | 9.6 ×10⁻⁶ cm/s | microsomal CLint at 1 μM ([1]; CD-1, mouse, liver microsomes, pH 7.4, mouse liver microsomes, read-out: CL int. mic.): 339 µL/min/mg; CL int. hep. ([1]; mouse, extrapolated to the whole liver): 1370 mL/min/kg; PAMPA Papp at pH 5.5 (in vitro; pH 5.5): 3.4–4.5 × 10^−6
